Assays:
[1] = Demulcent loading of hydrogel discs functionalized with CD; assay type: physicochemical; settings: 20° C., aqueous demulcent solution
Method: Next, a different demulcent was loaded in each disc functionalized with CD.
The weighed hydrogel discs were placed in 5 or 10 mL of aqueous polysorbate 80 solutions (0.2; 0.5 or 1 mg/mL) and kept at 20° C. under magnetic stirring (80 rpm) for 24 hours. Absorbance of the medium was monitored at 234 nm (Agilent […] UV/Vis spectrophotometer, Germany). The amount of loaded polysorbate 80 was estimated from the difference between the amounts in the loading medium before and after the loading tests.
The weighed hydrogel discs were placed in 5 or 10 mL of aqueous PEG4000 solutions (0.1 mg/mL), kept at 20° C. under magnetic stirring (80 rpm) for 48 hours. Aliquots of loading medium were analyzed by means of HPLC. The loaded amount of PEG4000 was estimated from the difference between the amounts in the loading medium before and after the loading tests.
(§1) The weighed hydrogel discs were introduced in vials containing 10 mL of aqueous ALA solution (saturated, ˜0.8 mg/mL). The vials remained under oscillating agitation (150 osc/min) at 20° C. At times 24 and 48 h, a sample of 3 mL of the loading solution was taken and absorbance was measured at 334 nm (Agilent 8453 UV/VIS, Germany). The amount of ALA loaded for every hydrogel was calculated by the difference between the initial content in the loading solution and the remaining content at the end of the test.
The loading results, measured in amount of demulcent for every gram of dry mass of hydrogel, are shown below: […]

[2] = Saturated aqueous ALA solution; assay type: physicochemical
Method: as §1

peroxidase = settings: Andrade et al., Exp Eye Res. 2014; cited from earlier work
[3] = Andrade et al., Exp Eye Res. 2014; cited from earlier work

Compound | amount of demulcent for every gram of dry mass of hydrogel ([1]; loading 24 h) [mg/g] | amount of demulcent for every gram of dry mass of hydrogel ([1]; loading 48 h) [mg/g] | concentration of saturated aqueous ALA solution [2] [µg/mL] | peroxidase activity (peroxidase) | tear production [3]
Polysorbate 80 | 1 | – | – | – | –
O=C(O)CCCC[C@@H]1CCSS1 [α-lipoic acid] | 57 | 58 | ~800 | increases peroxidase activity | increase in tear production

— US20200166671A1, “LIPOIC ACID HYDROGELS” (UNIVERSIDADE DE SANTIAGO DE COMPOSTELA, priority 2017, published 2020)
